Results: patent publication US4598095A (priority 1982, dated 1986)
In brackets after ≈: the same amount, converted by molar mass. Entries after “also recorded” stand apart in the source; their conditions may differ. Counter-ions that a name gives are not always drawn.

Assays:
in vitro = conditions: chicken, chorioallantoic membrane
[1] = test system: influenza virus, Adachi strain of A2-type; experiment: microbe, parasite or virus in culture; assay type: cell-based; conditions: for virucidal index: 50% toxicity concentration / 50% virucidal concentration; for EC50: 2 h, read-out: 50% Virucidal Concentration
[2] = test system: influenza virus, Adachi strain of A2-type; experiment: microbe, parasite or virus in culture; assay type: cell-based; conditions: for virus proliferation-inhibiting index: 50% toxicity concentration / 50% virus proliferation-inhibiting concentration, 2880 min; for IC50: 48 h, read-out: 50% Virus Proliferation-Inhibiting Concentration
[3] = test system: rice blast fungus (Pyricularia oryzae); experiment: whole plant or invertebrate; assay type: in vivo; conditions: 168 h, read-out: Protective Value
[4] = acute toxicity (LD50) by intraperitoneal administration to mice; conditions: mouse, in vivo, ip
From the text: In evaluating acute toxicity (LD50 value) of the compounds of this invention, compound number 4 and compound number 25 of Table 1, respectively, were selected and examined for their acute toxicities by intraperitoneal administration to mice.

[5] = test system: rice blast fungus (Pyricularia oryzae); assay type: in vivo; conditions: low dosage; for Protective Value: 100 ppm; for controlling effect against rice blast: Table 4
Pyricularia oryzae = conditions: Bokin Bobai, Vol. 9, No. 12, pages 551 to 561 (1981); cited from earlier work
plant pathogenic fungi = conditions: foregoing literature; cited from earlier work

Row | Compound | CC50 at 48 h (in vitro) [µg/mL] | virus proliferation-inhibiting index [2] | IC50 [2] [µg/mL] | pest or weed control at 400 ppm [3] [%] | also measured
1 | NC12CC3CC(CC(C3)C1)C2 [Am, Adamantaneamine Hydrochloride, reference compound] | 1000 | 30.4 | 32.9 |  | virucidal index [1]: 1.5; EC50 [1]: 649 µg/mL
2 | CSC(=N)NN=Cc1ccccc1 [Compound 1] |  |  |  | 90 | 
3 | N=C(NN=Cc1ccccc1)SCc1ccccc1 [Compound 2, Benzaldehyde-S-benzylisothiosemicarbazone Hydrochloride] |  |  |  | 85 | 
4 | CSC(=N)NN=Cc1ccccc1Cl [Compound 3] |  |  |  | 96 | 
5 | CSC(=N)NN=Cc1cccc(Cl)c1 [Compound 4] | > 1000 | > 54.0 | 18.5 (≈ 81.2 µM) | 100 | LD50 [4]: 200 mg/kg; virucidal index [1]: 5.7; EC50 [1]: 175 µg/mL (≈ 768 µM)
6 | CN=C(NN=Cc1cccc(Cl)c1)SC [Compound 5, 3'-Chlorobenzaldehyde-S-methyl-4-N-methylisothiosemicarbazone Hydrochloride] |  |  |  | 93 | 
7 | CSC(=N)NN=Cc1ccc(Cl)cc1 [Compound 6, 4'-Chlorobenzaldehyde-S-methylisothiosemicarbazone Hydrochloride] |  |  |  | 100 | 
8 | CN=C(NN=Cc1ccc(Cl)cc1)SC [Compound 7] |  |  |  | 75 | 
9 | CSC(=N)NN=Cc1ccc(Cl)cc1Cl [Compound 8] | 706 (≈ 2690 µM) | 35.7 | 19.8 (≈ 75.5 µM) | 97 | virucidal index [1]: 15.2; EC50 [1]: 46.4 µg/mL (≈ 177 µM)
10 | CCCCSC(=N)NN=Cc1ccc(Cl)cc1Cl [Compound 9, 2',4'-Dichlorobenzaldehyde-S-butylisothiosemicarbazone Hydrochloride] | 632 | 5.5 | 115 | 100 | virucidal index [1]: 19.9; EC50 [1]: 31.6 µg/mL
11 | CN=C(NN=Cc1ccc(Cl)c(Cl)c1)SC [Compound 10] |  |  |  | 88 | Protective Value [5]: 67%; controlling effect against rice blast [5]: low protective values; MIC Value in Literature (Pyricularia oryzae): 12.5 µg/mL (≈ 45.3 µM)
12 | CSC(=N)NN=Cc1ccc(Cl)c(Cl)c1 [Compound 11, 3',4'-Dichlorobenzaldehyde-S-methylisothiosemicarbazone Hydrochloride] | 707 | 33.2 | 21.3 | 98 | virucidal index [1]: 15.2; EC50 [1]: 46.4 µg/mL
13 | CSC(=N)NN=Cc1c(Cl)cccc1Cl [Compound 12] |  |  |  | 100 | 
14 | CSC(=N)NN=Cc1cc(Cl)cc(Cl)c1 [Compound 13] | 700 (≈ 2670 µM) | 14.0 | 50 (≈ 191 µM) | 100 | 
15 | CSC(=N)NN=Cc1cc(Cl)cc(Cl)c1O [Compound 14] | > 1000 | > 66.7 | 15 (≈ 53.9 µM) | 98 | 
16 | CCCCSC(=N)NN=Cc1ccc(F)cc1 [Compound 15] |  |  |  | 93 | 
17 | CSC(=N)NN=Cc1cccc(Br)c1 [Compound 16] |  |  |  | 100 | 
18 | CSC(=N)NN=Cc1ccc(C)cc1 [Compound 17] |  |  |  | 100 | 
19 | CCOc1ccc(C=NNC(=N)SC)cc1 [Compound 18] |  |  |  | 100 | effect against plant pathogenic fungi in vitro (plant pathogenic fungi): never been observed to have effects of inhibiting proliferation of any of the pathogenic fungi; Protective Value [5]: 99%; controlling effect against rice blast [5]: very excellent controlling effects
20 | CCCCSC(=N)NN=Cc1ccc(OCC)cc1 [Compound 19] | > 1000 | > 25.2 | 39.7 (≈ 142 µM) | 100 | effect against plant pathogenic fungi in vitro (plant pathogenic fungi): never been observed to have effects of inhibiting proliferation of any of the pathogenic fungi; Protective Value [5]: 93%; controlling effect against rice blast [5]: very excellent controlling effects; virucidal index [1]: 3.2; EC50 [1]: 316 µg/mL (≈ 1130 µM)
21 | CCCCOc1ccc(C=NNC(=N)SC)cc1 [Compound 20] |  |  |  | 99 | effect against plant pathogenic fungi in vitro (plant pathogenic fungi): never been observed to have effects of inhibiting proliferation of any of the pathogenic fungi; Protective Value [5]: 100%; controlling effect against rice blast [5]: very excellent controlling effects
22 | CSC(=N)NN=C(C)c1ccccc1 [Compound 21] | 158 (≈ 760 µM) | 12.6 | 12.5 (≈ 60.3 µM) | 100 | 
23 | CC(=NNC(=N)SCc1ccccc1)c1ccccc1 [Compound 22] |  |  |  | 90 | 
24 | CCCC(=NNC(=N)SC)c1ccccc1 [Compound 23] |  |  |  | 93 | 

Row | Compound | CC50 at 48 h (in vitro) [µg/mL] | virus proliferation-inhibiting index [2] | IC50 [2] [µg/mL] | pest or weed control at 400 ppm [3] [%] | also measured
25 | CSC(=N)NN=C(C)c1cccc(Cl)c1 [Compound 24] | 708 (≈ 2930 µM) | 28.3 | 25 (≈ 103 µM) | 89 | virucidal index [1]: 3.3; EC50 [1]: 215 µg/mL (≈ 889 µM)
26 | CSC(=N)NN=C(C)c1ccc(Cl)cc1 [Compound 25] | 354 (≈ 1470 µM) | 24.6 | 14.4 (≈ 59.6 µM) | 100 | LD50 [4]: 150 mg/kg; virucidal index [1]: 1.7; EC50 [1]: 215 µg/mL (≈ 889 µM)
27 | CCC(=NNC(=N)SC)c1ccc(Cl)cc1 [Compound 26] |  |  |  | 100 | 
28 | CCCC(=NNC(=N)SC)c1ccc(Cl)cc1 [Compound 27] |  |  |  | 100 | 
29 | CCCC(=NNC(=NC)SC)c1ccc(Cl)cc1 [Compound 28] | 794 (≈ 2800 µM) | 12.6 | 63 (≈ 222 µM) | 94 | 
30 | CSC(=N)NN=C(C)c1ccc(Cl)cc1Cl [Compound 29] | 180 (≈ 652 µM) | 7.7 | 23.2 (≈ 84 µM) | 90 | virucidal index [1]: 1.8; EC50 [1]: 100 µg/mL (≈ 362 µM)
31 | CSC(=N)NN=C(C)c1ccc(Cl)c(Cl)c1 [Compound 30] |  |  |  | 88 | Protective Value [5]: 66%; controlling effect against rice blast [5]: low protective values; MIC Value in Literature (Pyricularia oryzae): 12.5 µg/mL (≈ 45.3 µM)
32 | CSC(=N)NN=C(C)c1ccc(Cl)c(Cl)c1Cl [Compound 31] | 354 (≈ 1140 µM) | 16.6 | 21.3 (≈ 68.6 µM) | 89 | 
33 | CCCCSC(=N)NN=C(C)c1ccc(Cl)c(Cl)c1Cl [Compound 32] |  |  |  | 96 | 
34 | CSC(=N)NN=C(C)c1ccc(C)cc1 [Compound 33] | 1000 (≈ 4520 µM) | 20.0 | 50 (≈ 226 µM) | 97 | 
35 | CSC(=N)NN=C(C)c1ccc(O)cc1 [Compound 34] |  |  |  | 93 | 
36 | COc1ccc(C(C)=NNC(=N)SC)cc1 [Compound 35] | 99.4 (≈ 419 µM) | 7.0 | 14.2 (≈ 59.8 µM) | 100 | 
37 | CCCCSC(=N)NN=C(C)c1ccc(OC)cc1 [Compound 36] |  |  |  | 95 | 
38 | CCOc1ccc(C(C)=NNC(=N)SC)cc1 [Compound 37] | 88.8 (≈ 353 µM) | 7.1 | 12.5 (≈ 49.7 µM) | 89 | 
39 | CCCCCOc1ccc(C(C)=NNC(=N)SC)cc1 [Compound 38] | > 1000 | > 8.0 | 126 (≈ 429 µM) | 100 | effect against plant pathogenic fungi in vitro (plant pathogenic fungi): inactive against all of the plant pathogenic fungi
40 | CCCCCOc1ccc(C(C)=NNC(=N)SCCCC)cc1 [Compound 39] |  |  |  | 100 | 
41 | CCCCCCCCOc1ccc(C(C)=NNC(=N)SC)cc1 [Compound 40] |  |  |  | 85 | 
42 | CCCCCCCCCCOc1ccc(C(C)=NNC(=N)SC)cc1 [Compound 41] | 1000 (≈ 2750 µM) | < 5.0 | > 200 | 94 | virucidal index [1]: 6.9; EC50 [1]: 145 µg/mL (≈ 399 µM)
43 | CSC(=N)NN=C(C)C=Cc1ccc(Cl)cc1 [Compound 42] | 710 (≈ 2650 µM) | 7.1 | 100 (≈ 373 µM) | 88 | virucidal index [1]: 4.2; EC50 [1]: 170 µg/mL (≈ 635 µM)
44 | CCOc1ccc(C=CC(C)=NNC(=N)SC)cc1 [Compound 43] | > 1000 | 7.1 | 141 (≈ 508 µM) | 100 | effect against plant pathogenic fungi in vitro (plant pathogenic fungi): never been observed to have effects of inhibiting proliferation of any of the pathogenic fungi; also recorded: inactive against all of the plant pathogenic fungi; Protective Value [5]: 97%; controlling effect against rice blast [5]: very excellent controlling effects; virucidal index [1]: 3.2; EC50 [1]: 316 µg/mL (≈ 1140 µM)
45 | CCCCOc1ccc(C=CC(C)=NNC(=N)SC)cc1 [Compound 44] |  |  |  | 100 | 
46 | CCCCCCOc1ccc(C=CC(C)=NNC(=N)SC)cc1 [Compound 45] |  |  |  | 96 | 
47 | CCCCCCCCCCCCOc1ccc(C=CC(C)=NNC(=N)SC)cc1 [Compound 46] | > 1000 | > 11.7 | 85.2 (≈ 204 µM) | 77 | virucidal index [1]: > 31.6; EC50 [1]: 31.6 µg/mL (≈ 75.7 µM)
48 | CCCCCCCCOc1ccc(C=CC(C)=NNC(=N)SC)cc1OC [Compound 47] |  |  |  | 96 | 
